Test results published in patent US4330552A, “Antiinflammatory 4,5-diaryl-2-arylthioimidazoles” (E. I. Du Pont de Nemours and Company, priority 1980, dated 1982).

Tested on: adjuvant-induced arthritis in rats
Assay: Established Adjuvant-Induced Arthritis in Rats (paw volume reduction)
Format: in vivo, Lewis (Wistar) male rats
Details: oral gavage once daily for 7 days (days 14-20), paw volume on day 21; for ED50: Rattus norvegicus, estimated from dose-response regression lines by inspection, read-out: Adjuvant Arthritis ED50 (50% decrease from control paw volume)

Row | SMILES | ED50 | percent paw volume reduction at the dose indicated (25 mg/kg) | further results
1 | COc1ccc(-c2nc(Sc3ccc(Cl)cc3)[nH]c2-c2ccc(OC)cc2)cc1 [Example 1, 4,5-Bis(4-methoxyphenyl)-2-(4-chlorophenylthio)-1H-imidazole] | 10 mg/kg | – | –
2 | COc1ccc(-c2nc(Sc3ccccc3)[nH]c2-c2ccc(OC)cc2)cc1 [Example 2] | – | 32% | percent paw volume reduction at the dose indicated (50 mg/kg): 28%; percent paw volume reduction at the dose indicated (100 mg/kg): 32%
3 | COc1ccc(-c2nc(Sc3ccc(F)cc3)[nH]c2-c2ccc(OC)cc2)cc1 [Example 3] | – | 35% | –
4 | COc1ccc(Sc2nc(-c3ccc(OC)cc3)c(-c3ccc(OC)cc3)[nH]2)cc1 [Example 4] | 13 mg/kg | – | –
5 | COc1ccc(-c2nc(S(=O)(=O)c3ccc(Cl)cc3)[nH]c2-c2ccc(OC)cc2)cc1 [Example 5, 4,5-Bis(4-methoxyphenyl)-2-(4-chlorophenylsulfonyl)-1H-imidazole] | – | 31% | –
6 | COc1ccc(-c2nc(S(=O)(=O)c3ccccc3)[nH]c2-c2ccc(OC)cc2)cc1 [Example 6] | 58 mg/kg | – | –
7 | COc1ccc(-c2nc(S(=O)(=O)c3ccc(F)cc3)[nH]c2-c2ccc(OC)cc2)cc1 [Example 7] | – | – | percent paw volume reduction at the dose indicated (27 mg/kg): 0%
8 | COc1ccc(-c2nc(S(=O)(=O)c3ccc(OC)cc3)[nH]c2-c2ccc(OC)cc2)cc1 [Example 8] | – | 16% | –
